Laboratory results from patent US6737383B1, “Herbicidal oxadiazolidines” (priority 1999, dated 2004).

How the values were obtained:
rice = assay: Test B flood test rice; assay type: in vivo, Oryza sativa
In short: (§1)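 Flood test on plants grown to the 2-leaf stage; treated plants kept in greenhouse twelve to sixteen days, then visually rated against controls on a 0 (no effect) to 10 (complete control) scale.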

cocklebur = assay: Test B pre/postemergence cocklebur; assay type: in vivo, Xanthium strumarium
In short: (§2)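 Test chemicals in a non-phytotoxic solvent mixture with surfactant were sprayed preemergence onto planted seeds and postemergence onto plants 2 to 18 cm tall (1- to 4-leaf stage). After twelve to sixteen days in a greenhouse, injury was visually rated against untreated controls from 0 (no effect) to 10 (complete control).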

wild oat = assay: Test B pre/postemergence wild oat; assay type: in vivo, Avena fatua
In short: as §2

smallflower flatsedge = assay: Test B flood test smallflower flatsedge; assay type: in vivo, Cyperus difformis
In short: as §1

duck salad = assay: Test B flood test duck salad; assay type: in vivo, Heteranthera limosa
In short: as §1

corn = assay: Test B pre/postemergence corn; assay type: in vivo, Zea mays
In short: as §2

giant foxtail = assay: Test B pre/postemergence giant foxtail; assay type: in vivo, Setaria faberii
In short: as §2

surinam grass = assay: Test B pre/postemergence surinam grass; assay type: in vivo, Brachiaria decumbens
In short: as §2

pigweed = assay: Test B pre/postemergence pigweed; assay type: in vivo, Amaranthus retroflexus
In short: as §2

purple nutsedge = assay: Test B pre/postemergence purple nutsedge; assay type: in vivo, Cyperus rotundus; conditions: Postemergence
In short: as §2

blackgrass = assay: Test B pre/postemergence blackgrass; assay type: in vivo, Alopecurus myosuroides
In short: as §2

soybean = assay: Test B pre/postemergence soybean; assay type: in vivo, Glycine max
In short: as §2

sugar beet = assay: Test B pre/postemergence sugar beet; assay type: in vivo, Beta vulgaris
In short: as §2

morningglory = assay: Test B pre/postemergence morningglory; assay type: in vivo, Ipomoea hederacea
In short: as §2

bedstraw = assay: Test B pre/postemergence bedstraw; assay type: in vivo, Galium aparine
In short: as §2

crabgrass = assay: Test B pre/postemergence crabgrass; assay type: in vivo, Digitaria sanguinalis
In short: as §2

[1] = Rate 62 g/ha, headed Pre-emergence (flood test species), scale 0 to 10 (0 no effect, 10 complete control)
[2] = Rate 125 g/ha, Pre-emergence, flood test species, scale 0 to 10 where 0 is no effect and 10 is complete control
[3] = Rate 250 g/ha, Pre-emergence, flood-test species, scale 0 to 10, 0 is no effect, 10 is complete control
[4] = Rate 500 g/ha, Pre-emergence, flood test species, scale 0 to 10 (0 no effect, 10 complete control)
[5] = Preemergence, Rate 62 g/ha, scale of 0 to 10 where 0 is no effect and 10 is complete control
[6] = Preemergence, Rate 250 g/ha, scale of 0 to 10 where 0 is no effect and 10 is complete control
[7] = Preemergence, Rate 500 g/ha, scale of 0 to 10 where 0 is no effect and 10 is complete control
[8] = Rate 62 g/ha, Postemergence, scale of 0 to 10 where 0 is no effect and 10 is complete control
[9] = Rate 125 g/ha, Postemergence, scale 0 to 10
[10] = Rate 125 g/ha, Preemergence, scale of 0 to 10 where 0 is no effect and 10 is complete control
[11] = Rate 500 g/ha, Postemergence, scale 0 to 10, 0 no effect, 10 complete control

CC(C)N(C(=O)n1oc(=O)n(-c2cccnc2)c1=O)c1ccccc1 [Compound 235]
2: Morningglory plant response rating (morningglory; [8]) | Morningglory plant response rating (morningglory; [9])
6: Plant response rating (0 to 10; 0 is no effect, 10 is complete control), Morningglory (morningglory; Rate 250 g/ha, Postemergence)
7: Morningglory plant response rating (morningglory; [11])
0: Rice plant response rating (rice; [1]) | Rice plant response rating (rice; [2]) | Rice plant response rating (rice; [3]) | Rice plant response rating (rice; [4]) | Cocklebur plant response rating (cocklebur; [5]) | Cocklebur plant response rating (cocklebur; [6]) | Plant response rating, Cocklebur (cocklebur; [7]) | Cocklebur plant response rating (cocklebur; [8]) | Cocklebur plant response rating (cocklebur; [9]) | Cocklebur plant response rating (cocklebur; [10]) | Plant response rating (0 to 10; 0 is no effect, 10 is complete control), Cocklebur (cocklebur; Rate 250 g/ha, Postemergence) | Cocklebur plant response rating (cocklebur; [11]) | Wild oats plant response rating (wild oat; [5]) | Wild oats plant response rating (wild oat; [6]) | Plant response rating, Wild oats (wild oat; [7]) | Wild oats plant response rating (wild oat; [8]) | Wild oats plant response rating (wild oat; [9]) | Wild oats plant response rating (wild oat; [10]) | Plant response rating (0 to 10; 0 is no effect, 10 is complete control), Wild oats (wild oat; Rate 250 g/ha, Postemergence) | Wild oats plant response rating (wild oat; [11]) | S. Flatsedge plant response rating (smallflower flatsedge; [1]) | S. Flatsedge plant response rating (smallflower flatsedge; [2]) | S. Flatsedge plant response rating (smallflower flatsedge; [3]) | S. Flatsedge plant response rating (smallflower flatsedge; [4]) | Ducksalad plant response rating (duck salad; [1]) | Ducksalad plant response rating (duck salad; [2]) | Ducksalad plant response rating (duck salad; [3]) | Ducksalad plant response rating (duck salad; [4]) | Corn plant response rating (corn; [5]) | Corn plant response rating (corn; [6]) | Plant response rating, Corn (corn; [7]) | Corn plant response rating (corn; [8]) | Corn plant response rating (corn; [9]) | Corn plant response rating (corn; [10]) | Plant response rating (0 to 10; 0 is no effect, 10 is complete control), Corn (corn; Rate 250 g/ha, Postemergence) | Corn plant response rating (corn; [11]) | Giant foxtail plant response rating (giant foxtail; [5]) | Giant foxtail plant response rating (giant foxtail; [6]) | Plant response rating, Giant foxtail (giant foxtail; [7]) | Giant foxtail plant response rating (giant foxtail; [8]) | Giant foxtail plant response rating (giant foxtail; [9]) | Giant foxtail plant response rating (giant foxtail; [10]) | Plant response rating (0 to 10; 0 is no effect, 10 is complete control), Giant foxtail (giant foxtail; Rate 250 g/ha, Postemergence) | Giant foxtail plant response rating (giant foxtail; [11]) | B. signalgrass plant response rating (surinam grass; [5]) | B. signalgrass plant response rating (surinam grass; Preemergence, Rate 250 g/ha, scale 0 to 10, 0 is no effect, 10 is complete control) | Plant response rating, B. signalgrass (surinam grass; [7]) | B. signalgrass plant response rating (surinam grass; [8]) | B. signalgrass plant response rating (surinam grass; Rate 125 g/ha, Postemergence, scale 0 (no effect) to 10 (complete control)) | B. signalgrass plant response rating (surinam grass; [10]) | Plant response rating (0 to 10; 0 is no effect, 10 is complete control), B. signalgrass (surinam grass; Rate 250 g/ha, Postemergence) | B. signalgrass plant response rating (surinam grass; [11]) | Redroot pigweed plant response rating (pigweed; [5]) | Redroot pigweed plant response rating (pigweed; [6]) | Plant response rating, Redroot pigweed (pigweed; [7]) | Redroot pigweed plant response rating (pigweed; [8]) | Redroot pigweed plant response rating (pigweed; [9]) | Redroot pigweed plant response rating (pigweed; [10]) | Plant response rating (0 to 10; 0 is no effect, 10 is complete control), Redroot pigweed (pigweed; Rate 250 g/ha, Postemergence) | Redroot pigweed plant response rating (pigweed; [11]) | Nutsedge plant response rating (purple nutsedge; Rate 62 g/ha, scale of 0 to 10 where 0 is no effect and 10 is complete control) | Nutsedge plant response rating (purple nutsedge; Rate 125 g/ha, scale 0 to 10) | Plant response rating (0 to 10; 0 is no effect, 10 is complete control), Nutsedge (purple nutsedge; Rate 250 g/ha) | Nutsedge plant response rating (purple nutsedge; Rate 500 g/ha, scale 0 to 10, 0 no effect, 10 complete control) | Blackgrass plant response rating (blackgrass; [5]) | Blackgrass plant response rating (blackgrass; [6]) | Plant response rating, Blackgrass (blackgrass; [7]) | Blackgrass plant response rating (blackgrass; [8]) | Blackgrass plant response rating (blackgrass; [9]) | Blackgrass plant response rating (blackgrass; [10]) | Plant response rating (0 to 10; 0 is no effect, 10 is complete control), Blackgrass (blackgrass; Rate 250 g/ha, Postemergence) | Blackgrass plant response rating (blackgrass; [11]) | Soybean plant response rating (soybean; [5]) | Soybean plant response rating (soybean; [6]) | Plant response rating, Soybean (soybean; [7]) | Soybean plant response rating (soybean; [8]) | Soybean plant response rating (soybean; [9]) | Soybean plant response rating (soybean; [10]) | Plant response rating (0 to 10; 0 is no effect, 10 is complete control), Soybean (soybean; Rate 250 g/ha, Postemergence) | Soybean plant response rating (soybean; [11]) | Sugarbeets plant response rating (sugar beet; [5]) | Sugarbeets plant response rating (sugar beet; [6]) | Plant response rating, Sugarbeets (sugar beet; [7]) | Sugarbeets plant response rating (sugar beet; [8]) | Sugarbeets plant response rating (sugar beet; [9]) | Sugarbeets plant response rating (sugar beet; [10]) | Plant response rating (0 to 10; 0 is no effect, 10 is complete control), Sugarbeets (sugar beet; Rate 250 g/ha, Postemergence) | Sugarbeets plant response rating (sugar beet; [11]) | Morningglory plant response rating (morningglory; [5]) | Morningglory plant response rating (morningglory; [6]) | Plant response rating, Morningglory (morningglory; [7]) | Morningglory plant response rating (morningglory; [10]) | Bedstraw plant response rating (bedstraw; [5]) | Bedstraw plant response rating (bedstraw; [6]) | Plant response rating, Bedstraw (bedstraw; [7]) | Bedstraw plant response rating (bedstraw; [8]) | Bedstraw plant response rating (bedstraw; [9]) | Bedstraw plant response rating (bedstraw; [10]) | Plant response rating (0 to 10; 0 is no effect, 10 is complete control), Bedstraw (bedstraw; Rate 250 g/ha, Postemergence) | Bedstraw plant response rating (bedstraw; [11]) | Crabgrass plant response rating (crabgrass; [5]) | Crabgrass plant response rating (crabgrass; [6]) | Plant response rating, Crabgrass (crabgrass; [7]) | Crabgrass plant response rating (crabgrass; [8]) | Crabgrass plant response rating (crabgrass; [9]) | Crabgrass plant response rating (crabgrass; [10]) | Plant response rating (0 to 10; 0 is no effect, 10 is complete control), Crabgrass (crabgrass; Rate 250 g/ha, Postemergence) | Crabgrass plant response rating (crabgrass; [11])
